Results reported in US4451483A, “2,3,4-Trinor-m-inter-phenylene-prostaglandin derivatives and compositions and method for inhibiting blood platelet aggregation” (Chinoin Gyogyszer es Vegyeszeti Termekek Gyara Rt., priority 1981, dated 1984).
Counter-ions that a name gives are not always drawn. Like-named read-outs stand apart in the source and are kept apart here.

Columns and labels:
[1] = tested on: human PRP; test: Inhibition of ADP-induced aggregation in human platelet rich plasma (PRP), method of Born; assay type: cell-based; details: aggregation provoked by 4 μmol/ml of ADP, read-out: IC50 on human PRP (concentration required to attain 50% inhibiting effect)
Description: (§1) The main pharmacological effect of the new compounds according to the invention is that, like PGI2, they inhibit blood platelet aggregation and are able to dissolve the already existing agglomerates. The aggregation inhibiting effects of the new compounds were examined on human and guinea pig platelet rich plasma (PRP) according to the method of Born. Aggregation was provoked by adding 4 μmol/ml of ADP to the plasma, and then the prostacycline concentrations required to attain 50% or 100% inhibiting effect (IC50 or IC100) were determined.

[2] = tested on: guinea pig PRP; test: Inhibition of ADP-induced aggregation in guinea pig platelet rich plasma (PRP), method of Born; assay type: cell-based; details: Cavia porcellus, aggregation provoked by 4 μmol/ml of ADP, read-out: IC100 on guinea pig PRP (concentration required to attain 100% inhibiting effect)
Description: as §1

[3] = sodium salt: storage, free acid: physiological conditions, hydrolysis into 6-keto-PGF1α, cited from earlier work
[4] = Biological half-life in aqueous medium (period within which the biological activity drops to the half); assay type: physicochemical; details: aqueous medium at pH=7
Experimental: The biological half-life (i.e. the period within which the biological activity of the substance drops to the half) is 3 minutes for PGI2 an an aqueous medium at pH=7, and about 7 days for the new compounds according to the invention.

Row | Compound | IC50 [1] [ng/mL] | IC100 [2] [µg/mL] | stability of prostacycline sodium salt / free acid ([3]; listed as sodium salt of prostacycline) | half-life [4] [min] | stability of prostacycline sodium salt / free acid ([3]; listed as free PGI2 acid)
1 | CCCCCC[C@H](O)/C=C/[C@@H]1[C@H]2C/C(=C/c3cccc(C(=O)O)c3)O[C@H]2C[C@H]1O [5(Z)-2,3,4-Trinor-1,5-inter-m-phenylene-20-methyl-PGI2 sodium salt] | 12.5 | 0.014 |  |  | 
2 | CCCCC[C@H](O)/C=C/[C@@H]1[C@H]2C/C(=C/CCCC(=O)O)O[C@H]2C[C@H]1O [PGI2 sodium salt] | 2 | 0.00175 | very stable, highly storable compound |  | 
3 | CCCCC[C@H](O)/C=C/[C@@H]1[C@H]2C/C(=C/CCCC(=O)O)O[C@H]2C[C@H]1O [PGI2] |  |  |  | 3 | rapidly hydrolyzes into 6-keto-PGF1α
